# Measured values: paper PMC8624457, “Synthesis and Characterization of the Ethylene-Carbonate-Linked L-Valine Derivatives of 4,4-Dimethylcurcumin with Potential Anticancer Activities” (Molecules, 2021)
# Values joined by “and” are separate entries in the source; they are usually repeats but may differ in a detail not shown here. Equal values may be shown once. Where a name gives a salt, the structure may show the parent alone.
# Columns and labels:
# [1] = Water solubility by LC-MS analysis; type: physicochemical; settings: for solubility: 25 °C, thermodynamic from solid, room temperature (25 ± 1 °C)
# Description: 1-TFA, and 2-TFA with the linkage of L-valine-TFA side chain on either or both of the phenol groups were expected to show an increment of water solubility. We used LC-MS analysis to determine the water solubility of DMCU, 1-TFA, and 2-TFA. Initially, the LC signals detected by ESI+ mode for each compound were assigned as follows: [M + Na]^+ for DMCU, [M + H]^+ for 1-TFA, and [M + 2H]^2+ for 2-TFA (Figure 3A). The extracted ion chromatogram (XIC) was acquired by extracting the m/z signal of 419.1461 for DMCU, 583.2652 for 1-TFA, and 385.1865 for 2-TFA with a tolerance of ±5 ppm for each sample. The retention time of signals obtained from reverse phase liquid chromatography (RPLC) was 5.15 min (DMCU), 3.97 min (1-TFA), and 3.22 min (2-TFA) (Figure 3B). The limit of quantification was 0.16 ng for DMCU (S/N = 375.81) and 1 ng for 1-TFA (S/N = 231.24) or 2-TFA (S/N = 131.19). […] Next, to determine the water solubility of DMCU, 1-TFA and 2-TFA, aqueous solutions of these compounds at different concentrations were prepared for the generation of corresponding calibration curves.
# The quantitative analysis was performed using LC-MS and the results were shown in Figure 3C–E. Corresponding saturated water solutions were prepared and then diluted with ultrapure water for LC-MS analysis. […] For the analysis of DMCU water solubility, a clear solution of DMCU in 40% MeOH and 60% water (with a concentration of 1000 ppm) was prepared and divided into four portions. Each part was diluted with an appropriate amount of ultrapure water, resulting in DMCU precipitates, and the precipitates were then removed by centrifugation to give four samples with theoretical concentrations of 0.8, 4, 20, 100 ppm, respectively. The calculated concentrations of these […] samples were decided by comparing the LC-MS signals of corresponding samples to the calibration curves. (Figure 3F). The maximum concentration of DMCU in water was confirmed as 18 ppm at room temperature.
# The stock solutions of 1-TFA and 2-TFA were prepared by dissolving 20 mg of 1-TFA and 2-TFA, respectively, in 1 mL of 1% formic acid(aq). The standard solution of 1-TFA or 2-TFA of 0.5, 1.25, 2.5, 5 and 12.5 μg/mL was prepared by diluting the aforementioned stock solution with an adequate amount of 40% methanol in ultrapure water. The stock solution of DMCU was prepared by dissolving 10 mg of DMCU in 1 mL of methanol. The DMCU stock solution was diluted with 40% methanol in ultrapure water to afford three standard solutions with concentrations of 0.08, 0.4, and 2 μg/mL.
# The saturated aqueous solutions of compound 1-TFA and 2-TFA were prepared by a three-steps sequence including supersaturated solution preparation (addition of 20 mg compounds into 50 μL ultrapure water), centrifugation (10 min at 14,000× g), and collection of the resulting supernatants to afford the desired solutions. The saturated aqueous solutions were then diluted by ultrapure water as the ratio of 1 to 100,000 for LC-MS analysis.
# The LC-MS system consisted of an ultraperformance liquid chromatography (UPLC) system (ACQUITY UPLC I-Class, Waters, Milford, MA, USA and an ESI/APCI source of 4 kDa quadrupole time-of-flight mass spectrometer (Waters VION, Waters, Milford, MA, USA). A BEH C18 column (2.1 × 100 mm, Walters, Milford, MA, USA) was equipped to perform chromatographic separation. The flow rate of 0.2 mL/min with a column temperature of 35 °C was set for each sample injection. The elution started with 60% mobile phase A (ultrapure water + 0.1% formic acid) and 40% mobile phase B (100% methanol + 0.1% formic acid), then held at 40% B for 0.5 min, raised to 95% B in 5.5 min, held at 95% B for 1 min, and then lowered to 40% B in 1 min. The column was equilibrated by pumping 40% B for 4 min. […]
# A549 = assay: In vitro antiproliferative MTT assay; type: cell-based; settings: Homo sapiens, A549, 72 h, mean ± SD
# Method: (§1) Human NSCLC cell lines (NCI-H460, NCI-H358 and A549) were obtained from ATCC. All cell lines were grown in RPMI medium supplemented with 10% fetal bovine serum (FBS) and antibiotics and incubated at 37 °C in a humidified atmosphere with 5% CO2.
# (§2) Antiproliferative activities to various compounds was assessed using MTT assay. In brief, 2000–5000 cells were seeded in each well of 96-well plates and incubated at 37 °C overnight before drug treatment. After a three-day drug treatment, MTT solution was added to each well and the plates were further incubated at 37 °C for 6 h. Measurement of cell viability was assessed by absorbance at 570 nm. The IC50 values for each drug were determined using CompuSyn software based on the median-effect principle and plot.
# NCI-H358 = assay: In vitro antiproliferative MTT assay; type: cell-based; settings: Homo sapiens, NCI-H358, 72 h, mean ± SD
# Method: as §1, §2
# NCI-H460 = assay: In vitro antiproliferative MTT assay; type: cell-based; settings: Homo sapiens, NCI-H460, 72 h, mean ± SD
# Method: as §1, §2
# NCI-H460 cells = assay: Intracellular uptake and bioconversion by LC-MS of cell extracts; type: in vitro ADME, Human; settings: 10 μM
# Method: To test our hypothesis, intracellular uptake of DMCU, 1-TFA, and 2-TFA were evaluated in NCI-H460 cells which cells were more sensitive to 1-TFA and 2-TFA than DMCU. The intracellular drug uptake was generally evaluated using a fluorescence microscope or flow cytometry. However, the extremely similar chromophores among DMCU, 1-TFA, and 2-TFA caused failure in detection of individual signals by these two methodologies and therefore drew us to develop a versatile LC-MS based analysis for the cellular uptake evaluations. To estimate the cellular uptake, NCI-H460 cells were treated with each compound for the indicated time periods and the cell extracts were then subjected to LC-MS analysis to determine the intracellular levels of DMCU, 1-TFA, and […] (Figure 4). In the treatment groups, the intracellular levels of each compound were detected by LC-MS where the amount of the compound was quantified by comparing the LC-MS signals of cellular extracts to the corresponding drug calibration curves. […] The maximal uptake levels of 1-TFA and DMCU were detected by 60 ng and 7 ng, respectively, at 60 min after treatment (Figure 4A,B). In 2-TFA treated group, the maximal cellular uptakes occurred during the time interval from 30 to 60 min after drug treatment and acquired 100 ng of DMCU, 12 ng of 1-TFA and 1.2 ng of 2-TFA (Figure 4A–C). […] The cellular uptake efficiency of H460 cells was then evaluated in terms of the total quantity of DMCU, 1-TFA, and 2-TFA. […]
# [2] = Storage stability by HPLC purity / 1H NMR; type: physicochemical; settings: room temperature
# Method: The procedures employed for the synthesis of targeted compounds 1 and 2 are depicted in Scheme 1. The required DMCU was prepared according to a three-step sequence reported in the literature. Initially, the commercially available Boc-L-valine 3 was reacted with 2-aminoethanol 4 in the presence of HOTT and Et3N to provide the amide product 5 in 82% yield. Under treatment with 4-nitrophenyl chloroformate and DIPEA, 5 was converted into 6 in 87% yield. One equivalent or excess amount of 6 was coupled with the deprotonated DMCU, formed in situ by the treatment of DMCU with Cs2CO3, to afford compound 7 and 8, respectively. Compound 7 and 8 thus obtained were subjected to Boc deprotection under the standard conditions to give 1 and 2, respectively. The preliminary stability test was performed with NMR by applying 2 as a typical example. […] Based on our previous experience in the synthesis of DMCU-HMP, the instability could be ascribed to the cross-hydrolysis of carbonate group by the terminal amino group of side chain. Salt formation reactions of the N-terminal L-valine were then carried out to cap the nucleophilic amino group. […] 2-TFA is also stable in DMSO solution (0.1 M concentration). After 6-day storage at room temperate, the purity of 2-TFA remained intact. Accordingly, a similar salt formation procedure was employed to produce the stable 1-TFA. Compound 1-TFA along with 2-TFA were then applied for the following evaluations.
# Figure 2 The stability assessments of 2 and 2-TFA. (A) A clear solution of 2 in d-chloroform was subjected to a purity assessment by ^1H NMR spectroscopy at various storage times (fresh prepared (≤1 h); 1 day; 4 days). (B) The HPLC purity of fresh prepared 2-TFA was 95.74%. The fresh prepared 2-TFA in a solid state was stored at room temperature for another 6 days and then dissolved in water for HPLC analysis. The HPLC purity was decided as 95.55%. The fresh prepared 2-TFA was dissolved in DMSO and the resulting solution was stored at room temperature for another 6 days. HPLC purity of 2-TFA in the DMSO solution was 94.66%. […]
# [3] = tested on: NCI-H460, NCI-H358 and A549 cell lines; assay: In vitro antiproliferative MTT assay, range over the NSCLC lines; type: cell-based; settings: Homo sapiens, read-out: IC50 values in these cell lines
# Method: as §1, §2
# [4] = tested on: HCT-116 colon cancer cell; settings: cited from earlier work
# MDA-MB-231 breast cancer = settings: cited from earlier work
SMILES,"solubility ([1]; water, LC-MS)","fold increased solubility compared to DMCU ([1]; water, room temperature)",IC50 (A549),IC50 (NCI-H358),IC50 (NCI-H460),other results
COc1cc(/C=C/C(=O)C(C)(C)C(=O)/C=C/c2ccc(OC(=O)OCCNC(=O)[C@@H](N)C(C)C)c(OC)c2)ccc1OC(=O)OCCNC(=O)[C@@H](N)C(C)C [Compound 2],–,–,–,–,–,"stability by 1H NMR (in words) ([2]; solution in d-chloroform, fresh, 1 day, 4 days): gradually degraded into unidentified products"
"COc1cc(/C=C/C(=O)C(C)(C)C(=O)/C=C/c2ccc(OC(=O)C(C)(CO)CO)c(OC)c2)ccc1OC(=O)C(C)(CO)CO [DMCU-HMP, 4,4-dimethyl substituted curcuminoid 2,2-bis(hydroxymethyl)propionate]",–,–,–,–,–,IC50 [4]: 3.1 µM; IC50 (MDA-MB-231 breast cancer): 2.2 µM

# Continued, in another order:
"solubility ([1]; water, LC-MS)","fold increased solubility compared to DMCU ([1]; water, room temperature)",IC50 (A549),IC50 (NCI-H358),IC50 (NCI-H460),SMILES,other results
250 mg/mL,"13,700 fold and > 10,000 fold",3.17 ± 0.14 µM,1.92 ± 0.13 µM,1.95 ± 0.16 µM,COc1cc(/C=C/C(=O)C(C)(C)C(=O)/C=C/c2ccc(OC(=O)OCCNC(=O)[C@@H](N)C(C)C)c(OC)c2)ccc1O [Compound 1-TFA],"maximal uptake level: intracellular 1-TFA (NCI-H460 cells; 1-TFA-treated NCI-H460 cells, at 60 min after treatment): 60 ng"
376 mg/mL,"20,800 fold and > 10,000 fold",1.99 ± 0.24 µM,1.26 ± 0.06 µM,1.69 ± 0.04 µM,COc1cc(/C=C/C(=O)C(C)(C)C(=O)/C=C/c2ccc(OC(=O)OCCNC(=O)[C@@H](N)C(C)C)c(OC)c2)ccc1OC(=O)OCCNC(=O)[C@@H](N)C(C)C [Compound 2-TFA],"HPLC purity after storage in DMSO solution ([2]; DMSO solution (0.1 M), 6 days, fresh prepared 95.74%): 94.66%; HPLC purity after storage as solid ([2]; solid state, 6 days, fresh prepared 95.74%): 95.55%; maximal cellular uptake: intracellular 2-TFA (NCI-H460 cells; 2-TFA-treated NCI-H460 cells, 30 to 60 min after drug treatment): 1.2 ng"
0.018 mg/mL,–,2.5 ± 0.03 µM,1.62 ± 0.12 µM,2.13 ± 0.16 µM,"COc1cc(/C=C/C(=O)C(C)(C)C(=O)/C=C/c2ccc(O)c(OC)c2)ccc1O [DMCU, 4,4-Dimethylcurcumin]","maximum concentration in water ([1]; room temperature, dilution of 40% MeOH solution with water, precipitate removed, LC-MS): 18 ppm; water solubility (in words) ([1]; water): virtually insoluble in water; maximal uptake: intracellular DMCU (NCI-H460 cells; DMCU-treated NCI-H460 cells, at 1–2 h post-drug treatment, extract of approx. 1 × 10^6 cells): about 100 ng; IC50 [3]: 1.62 to 2.5 µM"
